Entries after “also recorded” stand apart in the source; their conditions may differ.
How the values were obtained:
[1] = system: DOI-induced psychotic-like behaviour; format: in vivo, mice
cannabinoid receptor CB2 = cannabinoid receptor CB2 (Homo sapiens, UniProt P34972); conditions: cited from earlier work
[2] = system: murine model of schizophrenia; experiment: Open-field test (ambulation, rearing, grooming) in the PCP mouse model
Protocol: Mice were assessed for hyperactivity behavior on postnatal day 16 (FIG. 2). Mice were placed in the center of a transparent glass cube cage 30×40 X31 cm divided into squares of 7.5×7.5 cm. The number of squares and rearing activity were counted for 8 min.
Mice were assessed for hyperactivity behavior on postnatal day 64-66. Mice were placed in the center of a transparent glass cube cage 30×40 X31 cm divided into squares of 7.5×7.5 cm. The number of squares and rearing activity were counted for 8 min.

CB2 receptor = CB2 receptor (Homo sapiens, UniProt P34972); conditions: Chicca A. et al 2014; cited from earlier work
Chain of CB2 receptor (P34972 whole entry): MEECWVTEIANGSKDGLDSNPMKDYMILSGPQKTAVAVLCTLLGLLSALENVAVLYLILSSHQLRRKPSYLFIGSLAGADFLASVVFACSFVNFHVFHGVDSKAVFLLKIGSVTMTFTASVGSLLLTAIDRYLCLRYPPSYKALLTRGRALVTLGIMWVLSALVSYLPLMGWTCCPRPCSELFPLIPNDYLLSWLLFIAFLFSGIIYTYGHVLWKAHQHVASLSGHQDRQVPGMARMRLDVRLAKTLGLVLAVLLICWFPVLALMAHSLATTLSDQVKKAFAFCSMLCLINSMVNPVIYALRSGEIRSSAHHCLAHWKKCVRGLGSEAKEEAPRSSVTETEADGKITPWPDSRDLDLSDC

CYP2D6 = CYP2D6 (Homo sapiens, UniProt P10635); experiment: CYP450 enzymatic metabolism in human liver microsomes; conditions: human liver microsomes 0.1 mg/mL, 20 min, 37 C
Chain of CYP2D6 (P10635 whole entry): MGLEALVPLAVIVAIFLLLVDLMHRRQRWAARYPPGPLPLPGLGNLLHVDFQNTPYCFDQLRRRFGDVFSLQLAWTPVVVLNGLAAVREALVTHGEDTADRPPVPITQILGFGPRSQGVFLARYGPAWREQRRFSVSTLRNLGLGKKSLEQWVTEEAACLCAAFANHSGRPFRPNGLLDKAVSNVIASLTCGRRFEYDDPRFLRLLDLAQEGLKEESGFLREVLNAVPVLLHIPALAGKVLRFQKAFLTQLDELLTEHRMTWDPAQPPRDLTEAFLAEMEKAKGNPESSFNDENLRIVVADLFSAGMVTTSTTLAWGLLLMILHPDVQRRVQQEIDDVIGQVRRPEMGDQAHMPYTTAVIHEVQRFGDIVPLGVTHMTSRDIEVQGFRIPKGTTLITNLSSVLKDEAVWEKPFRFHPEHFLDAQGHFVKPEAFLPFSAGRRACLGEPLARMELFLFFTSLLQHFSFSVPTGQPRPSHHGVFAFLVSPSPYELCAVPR
Protocol: CYP450 dependent activities were determined using a known substrate. […] A known inhibitor, such as quinidine, tested at a single concentration 3.00 μM was included as positive control. Incubation mixture containing human liver microsomes (0.1 mg/mL), substrate (5 μM) and standard inhibitor or test compound were warmed at 37 C for 10 minutes. Reactions were initiated by addition of the NADPH (1 mM) and the mixture was incubated for 20 minutes at 37° C. water bath. The organic solvent in the reaction mixture was DMSO. After incubation, ice cold acetonitrile was added to terminate the reaction. Generation of metabolite from the substrate reactions was determined by LC-MS/MS and assessed based on peak area ratios of analyte/IS. Mean was used to calculate the extent of inhibition (expressed as % of control activity).

[3] = system: murine model of schizophrenia; experiment: Prepulse inhibition (PPI) of the startle reflex in the PCP mouse model; format: in vivo, mice; conditions: age 7-8 weeks
Protocol: In this experimental model, a weak stimulus (74-90 dB tone) inhibited the subsequent response to a strong stimulus (120 dB tone). Reduced prepulse inhibition of the startle reflex (PPI) was taken as an index of the positive symptoms of schizophrenia (Josselyn and Vaccarino, 1998).
PPI was assessed similarly to the method described by Varty et al. In the employed model, mice were placed in a startle chamber and allowed to acclimate for 5 min. A loudspeaker produced a 65 dB background white noise or the various acoustic pre-pulse stimuli (dB): 74, 78, 82, 86, and 90 (20 ms). A 120 dB (40 ms) stimulus was given first to induce a response to startle. The response of the mouse was transduced and stored by a computer. Each test session lasted for 11 min and consisted of 5 presentations of each of the trial types presented in random order and separated by 15 second intervals. The amount of prepulse inhibition was calculated as % PPI=[1−(startle response for prepulse+pulse)/(startle response for pulse alone)]×100.
The % PPI indicates of level of disruption of the sensorimotor gating system in schizophrenia but also serves as an indicator of memory function. The % PPI after administration of PCP and treatment of BCP in the PPI test also serve as an index of memory function, further supporting the function of the sensorimotor system.

[4] = system: murine model of schizophrenia; experiment: Elevated Plus Maze test in the PCP mouse model; format: in vivo, mice; conditions: age 13 weeks; PCP 5 mg/kg injected postnatally
Protocol: Anxiety as measured by the paucity of time spent on the two, anxiety-provoking, open arms (as opposed to the two enclosed arms) of an “Elevated Plus Maze” was used as a parameter of negative symptoms of schizophrenia (Josselyn and Vaccarino, 1998). The plus maze was elevated 50 cm above the table top. Behavior of each mouse was recorded for 5 min by a video camera and scored using the “EthoVision” software (Noldus Information Technology, Wageningen, The Netherlands), measuring the number of entries as well as the amount of time spent in each arm, open or closed. Increased time spent in the closed arms indicated increased anxiety. Increased time spent in the opened arms indicated anxiolytic behavior (reduced stress).

[5] = system: murine model of schizophrenia; experiment: PhenoTyper cage behaviour in the PCP mouse model; format: in vivo, mice; conditions: PCP 5 mg/kg injected postnatally
[6] = Body weight in the neonatal PCP mouse model of schizophrenia; conditions: PCP 5 mg/kg injected postnatally
[7] = Hanus et al 1999, cited from earlier work
[8] = Skold et al. 2006; cited from earlier work

Chain of cannabinoid receptor CB2 (P34972 whole entry): as the sequence (P34972 whole entry) above

## COc1cc(CC(C)N)c(OC)cc1I.Cl (single isomer, unassigned; (-)) [DOI, (−)-1-(2,5-Dimethoxy-4-iodophenyl)-2-aminopropane hydrochloride, reference compound]
[1]; DOI injected intraperitoneally to mice, hydrochloride
  grooming response, DOI vs control: significantly increased the grooming response

## COc1ccc(C(=O)c2c(C)n(CCN3CCOCC3)c3cc(I)ccc23)cc1 [AM630, 6-Iodopravadoline, reference compound]
Cannabinoid receptor CB2
  Ki: 32.1 nM
[2]; PND 17, male mice, AM630 10 mg/kg co-injected with BCP 10 mg/kg 1 h after PCP
  open-field ambulation and rearing, reversal of the BCP effect: reversed the effects of BCP on ambulation and rearing behaviors; also recorded: not significantly different from these of PCP-treated mice; also recorded: reversed the effect of BCP on PCP-induced inhibition of ambulation and rearing

## C/C1=C\CC/C(C)=C/CC(C)(C)/C=C/C1 [alpha-humulene]
CB2 receptor
  CB2 receptor binding: inactivity

## Cc1nc2n(c(=O)c1CCN1CCC(c3noc4cc(F)ccc34)CC1)CCCC2 [risperidone, Risperidone, reference compound]
CYP2D6
  inhibition of CYP2D6 enzymatic activity: inhibited the activity of CYP2D6 enzyme
CYP2D6; listed as Risperidone
  inhibition of CYP2D6 enzymatic activity: inhibited CYP2D6 enzymatic activity
[2]; postnatal day 64, postnatal PCP 5 mg/kg, oral risperidone 0.5 mg/kg twice a week, PND 43-62
  activity in the open field test, male mice: reversed the effect of 5 mg/kg PCP on activity in the open field test of male mice at postnatal day 64

## c1ccc(C2(N3CCCCC3)CCCCC2)cc1 [PCP, Phencyclidine, reference compound]
[3]; PCP 5 mg/kg injected postnatally
  % prepulse inhibition, PCP vs vehicle: reduced the percent inhibition; also recorded: significant reduction in their ability to adjust to sound stimulus as compared to vehicle treated mice
[4]
  time spent in distal end of the opened arm, females, PCP vs vehicle: reduced the time spent in the distal end of the opened arm
  time spent in distal end of the opened arm, males, PCP vs vehicle: increased the time spent in the distal end of the opened arm
[5]; PND 91
  frequency of entries to the Hidden Zone, males, PCP vs vehicle: appeared to reduce the frequency of entries to the Hidden Zone in males
  frequency of entries to the wheel, PCP vs vehicle: reduced the frequency of entries to the wheel
  time spent at the Hidden Zone, PCP vs vehicle: increased the time spend at the Hidden Zone
[5]; PND 105
  frequency of entries to the Hidden Zone, PCP vs vehicle: increased the frequency of entries to the Hidden Zone
[6]; weight PND 3-17
  body weight, PCP vs vehicle: significantly reduce the body weight; also recorded: induced a significant reduction in body weight; also recorded: difference between vehicle- and PCP-treated groups in body weight was still significant; also recorded: significantly reduced body weight in male and female mice
[6]; PND 63
  body weight, PCP vs vehicle: no significant difference in the body weight between vehicle-treated mice and PCP-treated mice
[2]; PND 16-17, PCP 5 mg/kg injected postnatally
  open-field ambulation and rearing, PCP vs vehicle: significantly inhibited both ambulation and rearing behaviors
[2]; PND 35-37, PCP 5 mg/kg injected postnatally
  open-field locomotor activity, males, PCP vs vehicle: significantly increased the locomotor activity compared with vehicle treatment

## CCCCCCC(C)(C)c1cc(OC)c([C@@H]2C=C(CO)[C@@H]3C[C@H]2C3(C)C)c(OC)c1 [HU-308, [(1R,2R,5R)-2-[2,6-dimethoxy-4-(2-methyloctan-2-yl)phenyl]-7,7-dimethyl-4-bicyclo[3.1.1]hept-3-enyl]methanol]
[3]; HU-308 5 mg/kg injected 1 h after PCP postnatally (Cremophor EL:ethanol:saline), 5 mg/kg
  % PPI: reversed the effect of PCP on the % PPI; also recorded: reversed the effect of PCP in the PPI test
[1]; HU-308 i.p. before DOI
  time to inhibition of DOI-induced psychotic-like behaviour: already after about one hour
[1]; HU-308 injected intraperitoneally one to two hours before DOI
  DOI-induced grooming response: reverses the effects of the psychedelic drug DOI on behavioral symptoms in a murine model; also recorded: significantly reversed the effect of DOI on grooming response
[7]
  body weight of adult mice: does not modulate body weight of adult mice
  psychoactivity in vivo: non-psychoactive agent in vivo
[7]; similar age of mice (about PND 63)
  open field assay: no effects of HU-308 in the open field assay

## C=C1CC[C@H]2O[C@]2(C)CC[C@@H]2[C@@H]1CC2(C)C [BCP oxide, Caryophyllene oxide]
CB2 receptor
  CB2 receptor binding: inactivity
[8]
  allergenicity: found to be an allergen

Source: patent publication US20190070124A1, “COMPOSITIONS OF CB2 RECEPTOR SELECTIVE AGONISTS FOR TREATMENT OF MENTAL DISORDERS” (priority 2016, published 2019)
